Results taken from PMC11840788, “3,3′-Diindolylmethane (DIM): A Molecular Scaffold for Inhibition of WWP1 and WWP2, Members of the NEDD4 Family HECT E3 Ligases” (ACS Omega, 2025).
pIC50: −log10 of the molar value. Values joined by “and” are separate entries in the source; they are usually repeats but may differ in a detail not shown here. Identical values can stand only once.

Key:
[1] = biological target: T1, WWP2 (GST-tagged WWP2-FL) (Homo sapiens, UniProt O00308); assay: in vitro autoubiquitination assay (single shot and dose dependency), WWP2; format: biochemical; settings: single shot, compound at 1 mM (1% DMSO), standardized to 0 and 100% controls
T1 construct: Full- length WWP2 (WWP2-FL); made in house; host or cells: E. coli BL21-CodonPlus RP (plasmid pGEX2T-WWP2-FL, Dr Andrew Chantry's Lab)
Description: A single shot in vitro autoubiquitination assay was performed for I3C, DIM and each of the derivatives against WWP1 and WWP2 using a compound concentration of 1 mM (1% DMSO) (SI Figure S3). […] These active compounds were then subjected to a detailed dose dependency analysis leading to IC50 values. This strategy has previously been employed to screen other WWP1/WWP2 small molecule inhibitors as well as used to assess I3C inhibition toward NEDD4-1.[29],[32] In this way, compounds displaying a relative activity (RA) of less than 50% in the single shot assay were further screened for dose-dependency using a logarithmic concentration range from 10 nM to 1 mM (1% DMSO) (SI Figure S4). […] These were confirmed by counter assays to remove compounds possibly interacting with other enzymes in the assay or interfering with the assay directly (SI Table S1).
Cell lysate containing His-tagged WWP1-L34H or GST-tagged WWP2-FL proteins were incubated on either 96-well Clear Pierce glutathione or nickel-coated plates for 1 h. Reaction mixtures of either 3 ng/well GST-Uba1 and 15 ng/well UbcH7 or 10 ng/well His-Uba1 and 150 ng/well His-UbcH7 were incubated together in 25 mM Tris pH 8.0, 100 mM NaCl, 4 mM MgCl2 containing 60 ng/well FLAG-ubiquitin and 1.25 mM ATP for 40 min. A prior 1% BSA plate blocking step is required for nickel-coated plates. After plate washing, 2 μL of the compound was added at the desired concentration (1% DMSO) followed by 18 μL of the reaction mixture. This was then incubated for 2 h with 0 and 100% controls before 100 μL of anti-FLAG M2-Peroxidase HRP (1:10,000 PBST) was added to each well and incubated for 1 h. Finally, 100 μL of 1 × TMB substrate solution (Invitrogen) was added to each well and incubated for up to 10 min until sufficient blue color change was observed. To stop the reaction, 100 μL of 1 M HCl was added. For the counter assay, 3 ng/well GST-Uba1 and 200 ng/well UbcH7 were incubated with the other reaction mixture components for 1 h before incubating onto plates for a further 1 h. All other steps were followed. The plates were washed three times with PBST (and 15 mM Imidazole) between each step. Quantification was measured by absorbance read at 450 nm. All assay optimizations were as previously reported.[32] IC50 nonlinear regression curves were calculated in GraphPad v10.2 (Prism). […]
Auto-ubiquitination Assay
Cell lysate containing His-tagged WWP1-L34H or GST-tagged WWP2-FL proteins were incubated on either 96-well Clear Pierce glutathione 2 or nickel-coated plates for 1 hour. Reaction mixtures of either 3 ng/well GST-Uba1 and 15 ng/well UbcH7 or 10 ng/well His-Uba1 and 150 ng/well His-UbcH7 were incubated together in 25 mM Tris pH 8.0, 100 mM NaCl, 4 mM MgCl2 containing 60 ng/well FLAG-ubiquitin and 1.25 mM ATP for 40 minutes. A prior 1 % BSA plate blocking step is required for nickel-coated plates. After plate washing, 2 μL of the compound was added at the desired concentration (1 % DMSO) followed by 18 μL of the reaction mixture. This was then incubated for 2 hours with 0% and 100% controls before 100 μL of anti-FLAG M2-Peroxidase HRP (1: 10,000 PBST) was added to each well and incubated for 1 hour.
Finally, 100 μL of 1 × TMB substrate solution (Invitrogen) was added to each well and […]
incubated for up to 10 minutes until sufficient blue colour change was observed. To stop the reaction, 100 μL of 1 M HCl was added. For the counter assay, 3 ng/well GST-Uba1 and 200 ng/well UbcH7 were incubated with the other reaction mixture components for 1 hour before incubating onto plates for a further 1 hour. All other steps were followed.
The plates were washed three times with PBST (and 15 mM Imidazole) between each step. Quantification was measured by absorbance read at 450 nm. All assay optimisations have been previously reported by Watt and colleagues3.
Relative activity (RA) was determined by comparing the autoubiquitination of the WWP ligases in the presence of each compound, i.e TMB absorbance (450 nm), to the […]

NEDD4-1 = system: NEDD4-1; design: method as in PMID 27979631; settings: cited from earlier work

T1 sequence (O00308 whole entry): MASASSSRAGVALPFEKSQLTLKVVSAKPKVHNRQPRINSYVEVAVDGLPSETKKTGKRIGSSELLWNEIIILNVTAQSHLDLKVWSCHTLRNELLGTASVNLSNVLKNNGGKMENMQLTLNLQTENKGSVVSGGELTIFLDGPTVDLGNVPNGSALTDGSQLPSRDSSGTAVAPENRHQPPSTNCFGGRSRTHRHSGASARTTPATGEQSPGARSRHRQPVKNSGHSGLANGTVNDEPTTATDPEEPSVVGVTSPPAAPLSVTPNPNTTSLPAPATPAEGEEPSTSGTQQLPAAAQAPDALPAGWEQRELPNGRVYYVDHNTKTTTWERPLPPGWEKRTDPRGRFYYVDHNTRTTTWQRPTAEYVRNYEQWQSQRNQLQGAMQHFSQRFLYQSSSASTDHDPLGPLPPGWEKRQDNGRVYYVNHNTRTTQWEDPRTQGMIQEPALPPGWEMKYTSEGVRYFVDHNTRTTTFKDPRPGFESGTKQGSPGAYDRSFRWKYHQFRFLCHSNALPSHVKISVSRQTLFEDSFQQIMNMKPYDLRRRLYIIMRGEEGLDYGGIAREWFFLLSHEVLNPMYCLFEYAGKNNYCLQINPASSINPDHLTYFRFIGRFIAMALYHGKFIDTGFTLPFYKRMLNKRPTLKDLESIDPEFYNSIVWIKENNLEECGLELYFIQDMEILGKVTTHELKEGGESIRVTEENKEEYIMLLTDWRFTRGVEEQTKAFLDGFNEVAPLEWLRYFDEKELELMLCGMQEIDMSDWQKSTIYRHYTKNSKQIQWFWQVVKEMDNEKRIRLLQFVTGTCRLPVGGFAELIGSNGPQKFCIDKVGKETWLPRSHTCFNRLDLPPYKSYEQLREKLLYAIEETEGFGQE

## OCc1c[nH]c2ccccc12 [Compound I3C, Indole-3-carbinol, reference compound]
[1]
  WWP2 RA (%) relative activity: 88.0 ± 7.5% and 88.0%
NEDD4-1
  pIC50: 3.55
